Results on five molecules are retold here after article PMC4928627 (Journal of Natural Products, 2016).

Data set [1] has as its system CHIKV Indian Ocean strain 899. In words: CHIKV CPE reduction assay. Format: cell-based, chikungunya virus (CHIKV). The note with it: BGM cells, 0.001 MOI CHIKV 899, day 5 p.i.
A further data set has as its system BGM cells. Kind of data set: Cytotoxic/cytostatic effect in uninfected cells. Type of data set: cell-based, buffalo green monkey. The conditions noted are these: compound alone.
The test system of the next data set is human cancer cell lines. The note with it: growth inhibition; cited from earlier work.

As to `C=C1C[C@H]2C[C@]3(O)O[C@H](C[C@@H](O)CC(=O)O[C@@H](CO)C[C@@H]4C/C(=C\C(=O)OC)[C@H](OC(=O)CCCCCCC)[C@@](O)(O4)C(C)(C)/C=C/[C@@H](C1)O2)C[C@H](OC(C)=O)C3(C)C` [compound 19], in data set [1], the “EC50 (concentration of compound that reduces the CHIKV-induced cytopathic effect by 50%)” value was “toxicity before any observable cell-protective effect”.
Regarding `CCCCCCCC(=O)O[C@H]1/C(=C/C(=O)OC)C[C@H]2C[C@H](CO)OC(=O)C[C@H](O)C[C@@H]3C[C@H](OC(C)=O)C(C)(C)[C@H](C[C@@H]4CCO[C@H](/C=C/C(C)(C)[C@]1(O)O2)O4)O3` [compound 10], the “EC50 (concentration of compound that reduces the CHIKV-induced cytopathic effect by 50%)” value in data set [1] is recorded as “potent”. Besides, in the data set on BGM cells, the “CC50 (concentration at which cell viability is 50% relative to untreated cells)” value was “nontoxic”.
Consider `C=C1C[C@H]2C[C@]3(O)O[C@H](C[C@@H](O)CC(=O)O[C@@H](CO)C[C@@H]4C/C(=C\C(=O)OC)[C@H](OC(=O)CCCCCCC)[C@@](O)(O4)C(C)(C)/C=C/[C@@H](C1)O2)C[C@H](O)C3(C)C` [compound 18], for which the “EC50 (concentration of compound that reduces the CHIKV-induced cytopathic effect by 50%)” value in data set [1] is given as “toxicity before any observable cell-protective effect”.
For the molecule `CCC/C=C/C=C/C(=O)O[C@H]1/C(=C/C(=O)OC)C[C@H]2C[C@H]([C@@H](C)O)OC(=O)C[C@H](O)C[C@@H]3C[C@H](OC(C)=O)C(C)(C)[C@](O)(C[C@@H]4C/C(=C/C(=O)OC)C[C@H](/C=C/C(C)(C)[C@]1(O)O2)O4)O3` [compound 1, Bryostatin 1, reference compound], the “EC50 (concentration of compound that reduces the CHIKV-induced cytopathic effect by 50%)” value was “ineffective” in data set [1] (listed as bryostatin) and “inactive” in data set [1] (listed as bryostatin 1).
Take `CCCCCCCC(=O)O[C@H]1/C(=C/C(=O)OC)C[C@H]2C[C@H](CO)OC(=O)C[C@H](O)C[C@@H]3CCC[C@H](C[C@@H]4CCO[C@H](/C=C/C(C)(C)[C@]1(O)O2)O4)O3` [compound 3]: the “effectiveness of the analogue relative to the natural product (bryostatin)” value in the data set on human cancer cell lines is on record as 2–3 orders of magnitude.
